Test results reported in PubChem BioAssay AID1963839 (Molecular Pharmacology Branch, DTP, NCI, 2024).
pIC50: −log10 of the molar value.

System: 817829-284-R-J1-PDC complex spheroid viability
Assay: Anticancer human tumor 817829-284-R-J1-PDC patient-derived colon adenocarcinoma cell line growth inhibition [POLQ]
Conditions: for pIC50: curve of first compound; for viability, T/C: stronger effect = lower value
Method in brief: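 Complex spheroid viability model combining PDC tumour cells with endothelial (HUVEC) and MSC stromal cells. Novobiocin, ART-558 or RP6685 were tested singly and in combination with standard and investigational anticancer drugs. Each was titrated in half-log steps from near clinical Cmax, or from 10 microM where Cmax was unknown.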

[1] = second compound 0.0316 µM, first compound 0.0316 µM
[2] = second compound 0.0316 µM, first compound 0.1 µM
[3] = second compound 0.0316 µM, first compound 0.316 µM
[4] = second compound 0.0316 µM, first compound 1 µM
[5] = second compound 0.0316 µM, first compound 3.16 µM
[6] = second compound 0.0316 µM, first compound 10 µM
[7] = second compound 0.1 µM, first compound 0.0316 µM
[8] = second compound 0.1 µM, first compound 0.1 µM
[9] = second compound 0.1 µM, first compound 0.316 µM
[10] = second compound 0.1 µM, first compound 1 µM
[11] = second compound 0.1 µM, first compound 3.16 µM
[12] = second compound 0.1 µM, first compound 10 µM
[13] = second compound 0.316 µM, first compound 0.0316 µM
[14] = second compound 0.316 µM, first compound 0.1 µM
[15] = second compound 0.316 µM, first compound 0.316 µM
[16] = second compound 0.316 µM, first compound 1 µM
[17] = second compound 0.316 µM, first compound 3.16 µM
[18] = second compound 0.316 µM, first compound 10 µM
[19] = second compound 1 µM, first compound 0.0316 µM
[20] = second compound 1 µM, first compound 0.1 µM
[21] = second compound 1 µM, first compound 0.316 µM
[22] = second compound 1 µM, first compound 1 µM
[23] = second compound 1 µM, first compound 3.16 µM
[24] = second compound 1 µM, first compound 10 µM
[25] = second compound 3.16 µM, first compound 0.0316 µM
[26] = second compound 3.16 µM, first compound 0.1 µM
[27] = second compound 3.16 µM, first compound 0.316 µM
[28] = second compound 3.16 µM, first compound 1 µM
[29] = second compound 3.16 µM, first compound 3.16 µM
[30] = second compound 3.16 µM, first compound 10 µM
[31] = second compound 10 µM, first compound 0.0316 µM
[32] = second compound 10 µM, first compound 0.1 µM
[33] = second compound 10 µM, first compound 0.316 µM
[34] = second compound 10 µM, first compound 1 µM
[35] = second compound 10 µM, first compound 3.16 µM
[36] = second compound 10 µM, first compound 10 µM
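Further: spheroids exposed to compounds for 7 days.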
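Wherever viability, T/C is given: 100% = DMSO vehicle-treated spheroids.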

CC1COCCN1c1cc(C2(S(C)(=N)=O)CC2)nc(-c2ccnc3[nH]ccc23)n1 (stereo not drawn) + COC1C(OC(N)=O)C(O)C(Oc2ccc3c(O)c(NC(=O)c4ccc(O)c(CC=C(C)C)c4)c(=O)oc3c2C)OC1(C)C
pIC50 (second compound 0.0316 µM): 6.47
pIC50 (second compound 0.1 µM): 6.37
pIC50 (second compound 0.316 µM): 6.44
pIC50 (second compound 1 µM): 6.36
pIC50 (second compound 3.16 µM): 6.77
pIC50 (second compound 10 µM): 6.62
viability, T/C [1]: 85.6%
viability, T/C [2]: 74.6%
viability, T/C [3]: 53.1%
viability, T/C [4]: 19.9%
viability, T/C [5]: 6.56%
viability, T/C [6]: 4.6%
viability, T/C [7]: 98.5%
viability, T/C [8]: 105%
viability, T/C [9]: 58.7%
viability, T/C [10]: 19.9%
viability, T/C [11]: 7.9%
viability, T/C [12]: 4.68%
viability, T/C [13]: 92.7%
viability, T/C [14]: 76.3%
viability, T/C [15]: 56.8%
viability, T/C [16]: 21%
viability, T/C [17]: 6.66%
viability, T/C [18]: 4.27%
viability, T/C [19]: 94.5%
viability, T/C [20]: 110%
viability, T/C [21]: 59.2%
viability, T/C [22]: 23.4%
viability, T/C [23]: 9.79%
viability, T/C [24]: 4.86%
viability, T/C [25]: 89.9%
viability, T/C [26]: 60.2%
viability, T/C [27]: 37.9%
viability, T/C [28]: 20.8%
viability, T/C [29]: 8.42%
viability, T/C [30]: 4.19%
viability, T/C [31]: 111%
viability, T/C [32]: 63.3%
viability, T/C [33]: 51.7%
viability, T/C [34]: 24.6%
viability, T/C [35]: 9.19%
viability, T/C [36]: 4.6%

CCCS(=O)(=O)Nc1ccc(F)c(C(=O)c2c[nH]c3ncc(-c4ccc(Cl)cc4)cc23)c1F + COC1C(OC(N)=O)C(O)C(Oc2ccc3c(O)c(NC(=O)c4ccc(O)c(CC=C(C)C)c4)c(=O)oc3c2C)OC1(C)C
pIC50 (second compound 0.0316 µM): 5.62
pIC50 (second compound 0.1 µM): 5.48
pIC50 (second compound 0.316 µM): 5.36
pIC50 (second compound 1 µM): 5.54
pIC50 (second compound 3.16 µM): 5.28
pIC50 (second compound 10 µM): 5.45
viability, T/C [1]: 76%
viability, T/C [2]: 77%
viability, T/C [3]: 73.6%
viability, T/C [4]: 73.4%
viability, T/C [5]: 42.9%
viability, T/C [6]: 16.6%
viability, T/C [7]: 76.6%
viability, T/C [8]: 74.8%
viability, T/C [9]: 43.4%
viability, T/C [10]: 86.7%
viability, T/C [11]: 51.9%
viability, T/C [12]: 12.8%
viability, T/C [13]: 48.3%
viability, T/C [14]: 71.4%
viability, T/C [15]: 58.7%
viability, T/C [16]: 71.2%
viability, T/C [17]: 68.5%
viability, T/C [18]: 15.9%
viability, T/C [19]: 86.4%
viability, T/C [20]: 80.6%
viability, T/C [21]: 48.5%
viability, T/C [22]: 74.6%
viability, T/C [23]: 51.6%
viability, T/C [24]: 13%
viability, T/C [25]: 76.3%
viability, T/C [26]: 76.8%
viability, T/C [27]: 89.3%
viability, T/C [28]: 79.1%
viability, T/C [29]: 76.3%
viability, T/C [30]: 16.1%
viability, T/C [31]: 82%
viability, T/C [32]: 86.4%
viability, T/C [33]: 62.1%
viability, T/C [34]: 86.4%
viability, T/C [35]: 53.8%
viability, T/C [36]: 13%

CNCc1ccc(-c2[nH]c3cc(F)cc4c3c2CCNC4=O)cc1 + COC1C(OC(N)=O)C(O)C(Oc2ccc3c(O)c(NC(=O)c4ccc(O)c(CC=C(C)C)c4)c(=O)oc3c2C)OC1(C)C
pIC50 (second compound 0.0316 µM): 5.18
pIC50 (second compound 0.1 µM): < 5.00
pIC50 (second compound 0.316 µM): < 5.00
pIC50 (second compound 1 µM): 5.28
pIC50 (second compound 3.16 µM): 5.29
pIC50 (second compound 10 µM): 5.27
viability, T/C [1]: 95.8%
viability, T/C [2]: 94%
viability, T/C [3]: 83%
viability, T/C [4]: 76.8%
viability, T/C [5]: 68.8%
viability, T/C [6]: 40.2%
viability, T/C [7]: 73.3%
viability, T/C [8]: 102%
viability, T/C [9]: 86%
viability, T/C [10]: 55.2%
viability, T/C [11]: 72.8%
viability, T/C [12]: 53.3%
viability, T/C [13]: 99.1%
viability, T/C [14]: 108%
viability, T/C [15]: 83.7%
viability, T/C [16]: 80.4%
viability, T/C [17]: 74.3%
viability, T/C [18]: 51.5%
viability, T/C [19]: 125%
viability, T/C [20]: 91.6%
viability, T/C [21]: 107%
viability, T/C [22]: 81.8%
viability, T/C [23]: 80.3%
viability, T/C [24]: 22%
viability, T/C [25]: 119%
viability, T/C [26]: 109%
viability, T/C [27]: 98.9%
viability, T/C [28]: 103%
viability, T/C [29]: 58.5%
viability, T/C [30]: 38.2%
viability, T/C [31]: 98%
viability, T/C [32]: 99%
viability, T/C [33]: 75.1%
viability, T/C [34]: 90.1%
viability, T/C [35]: 73.9%
viability, T/C [36]: 23.1%

COc1cccc(OCCCN)c1-c1cc(Nc2cnc(C#N)cn2)n[nH]1 + COC1C(OC(N)=O)C(O)C(Oc2ccc3c(O)c(NC(=O)c4ccc(O)c(CC=C(C)C)c4)c(=O)oc3c2C)OC1(C)C
pIC50 (second compound 0.0316 µM): > 8.50
pIC50 (second compound 0.1 µM): > 8.50
pIC50 (second compound 0.316 µM): > 8.50
pIC50 (second compound 1 µM): > 8.50
pIC50 (second compound 3.16 µM): > 8.50
pIC50 (second compound 10 µM): > 8.50
viability, T/C (second compound 0.0316 µM, first compound 0.00316 µM): 29.9%
viability, T/C (second compound 0.0316 µM, first compound 0.01 µM): 8.3%
viability, T/C [1]: 5.67%
viability, T/C [2]: 5.85%
viability, T/C [3]: 4.68%
viability, T/C [4]: 3.39%
viability, T/C (second compound 0.1 µM, first compound 0.00316 µM): 26%
viability, T/C (second compound 0.1 µM, first compound 0.01 µM): 11.2%
viability, T/C [7]: 6.67%
viability, T/C [8]: 5.76%
viability, T/C [9]: 5.35%
viability, T/C [10]: 3.07%
viability, T/C (second compound 0.316 µM, first compound 0.00316 µM): 29.5%
viability, T/C (second compound 0.316 µM, first compound 0.01 µM): 8.79%
viability, T/C [13]: 6.28%
viability, T/C [14]: 5.55%
viability, T/C [15]: 4.77%
viability, T/C [16]: 3.42%
viability, T/C (second compound 1 µM, first compound 0.00316 µM): 39.1%
viability, T/C (second compound 1 µM, first compound 0.01 µM): 8.54%
viability, T/C [19]: 6.62%
viability, T/C [20]: 4.99%
viability, T/C [21]: 4.97%
viability, T/C [22]: 3.65%
viability, T/C (second compound 3.16 µM, first compound 0.00316 µM): 44.4%
viability, T/C (second compound 3.16 µM, first compound 0.01 µM): 8.05%
viability, T/C [25]: 5.78%
viability, T/C [26]: 4.98%
viability, T/C [27]: 4.52%
viability, T/C [28]: 4.11%
viability, T/C (second compound 10 µM, first compound 0.00316 µM): 26.2%
viability, T/C (second compound 10 µM, first compound 0.01 µM): 8.47%
viability, T/C [31]: 6.63%
viability, T/C [32]: 5.63%
viability, T/C [33]: 4.76%
viability, T/C [34]: 4.08%
